This note sets out measurements from US8445504B2, “Tricyclic pyrazolopyrimidine derivatives” (Daiichi Sankyo Company, Limited, priority 2009, dated 2013).

The structures appear in SMILES notation.

For data set [1], the system named is human lung cancer cell line NCI-H460. As to the kind of experiment: Cell growth inhibition assay (MTT), NCI-H460. Particulars: NCI-H460, 72 hours. The class given is cell-based. As for the experimental part:
(§1) A cell growth inhibition assay was performed using two types of cells (human breast cancer cell line SK-BR-3 and human lung cancer cell line NCI-H460).
(§2) Cells of each type were suspended in a medium and seeded into a 96-well multi-well plate at 2000 cells/150 μL/well in the case of SK-BR-3 and at 500 cells/150 μL/well in the case of NCI-H460. The test compound was dissolved in DMSO, and this was diluted with medium to prepare a sample solution (DMSO concentration: 0.5% or less). On the day following the seeding, 50 μL of DMSO-containing medium to which the test compound was not added (hereinafter called DMSO diluted solution; DMSO concentration: 0.5% or less) or 50 μL of the sample solution was further added to the cells. An MTT assay was performed immediately after and 72 hours after adding the sample solution or the DMSO diluted solution to the cells. The MTT assay was performed as follows.
(§3) 5 mg/mL of an MTT (3-(4,5-dimethylthiazol-2-yl)-2,5-diphenyltetrazolium bromide) solution was added at 20 μL per well. Thereafter, the plate was incubated at 37° C. in 5% CO2 for four hours. The plate was centrifuged at 1200 rpm for five minutes, and then the culture supernatant was removed by suction using a dispenser. DMSO was added at 150 μL per well, and the generated formazan was dissolved. The plate was stirred using a plate mixer to uniformly color the respective wells. The absorbance of each well was measured using a plate reader at an OD of 540 nm with a reference of 660 nm.
(§4) T/C (%) for each concentration was determined by the following calculation formula and a dose-response curve was drawn to calculate the 50% growth inhibitory concentration (GI50 value), based on the assumption that the OD value measured immediately after adding the sample solution was S, the OD value measured 72 hours after adding the sample solution was T, and the OD value measured 72 hours after adding the DMSO diluted solution was C. T/C (%)=(T−S)/(C−S)×100 The results are shown below.

Data set [2] has as its target CYP3A4 (Homo sapiens, UniProt P08684). Briefly: in vitro. Particulars: microsomes, pH 7.4. As for the experimental part:
Appropriate amounts of such test compound, substrate, target to be measured, and positive control were weighed. They were dissolved in DMSO, and were then diluted with acetonitrile, as appropriate.
180 μl of a reaction solution prepared by mixing the following (1) to (5) had previously been warmed at 37° C. for 10 minutes:
(1) Potassium phosphate buffer (pH 7.4; final concentration: 50 mM)
(3) Midazolam (final concentration: 2.5 μM)
(5) Human hepatic microsome (final concentration: 0.05 mg-P/ml)
20 μl of the NADPH Regeneration System (solution A/solution B/purified water=5/1/4) was added to this reaction solution, and the reaction was initiated. The mixture was incubated for 10 minutes. Thereafter, 50 μl of the reaction solution was sampled, and it was then added to 200 μl of acetonitrile, followed by the termination of the reaction. Further, 50 μl of an acetonitrile solution containing an internal standard substance was added to the reaction solution.
In order to remove proteins from this sample, the reaction solution was transferred to a 96-Well Collection Plate (Waters) using Captiva (registered trademark) (GL Sciences). This sample solution was defined as a sample used for the assay of LC-MS/MS.
Samples of 1′-Hydroxymidazolam having known concentrations (final concentrations: 0 to 5 μM; total 5 points) were prepared, separately. A calibration curve used for assay was prepared, and the concentration of 1′-Hydroxymidazolam in the sample was assayed. This reaction was carried out in a duplicated manner.
The amount of 1′-Hydroxymidazolam generated in the negative control was defined as 100%, and the ratio of the amount of this compound generated by addition of each compound was then calculated. Thus, the inhibition value of CYP3A4 was obtained.

In data set [3] the test system is human breast cancer cell line SK-BR-3. Briefly: Cell growth inhibition assay (MTT), SK-BR-3. The class given is cell-based. Particulars: SK-BR-3, 72 hours. As to the method:
as §1, §2, §3, §4

Data set [4] concerns the target T1, recombinant yeast Hsp90 protein (rHsp90) (Saccharomyces cerevisiae, UniProt P02829).
T1 construct: made in house; host or cells: Escherichia coli
As to the kind of experiment: Hsp90 ATPase assay. The class given is biochemical. The conditions noted are these: at a concentration of 2 μM; 100 μM ATP, 37° C., two hours; read-out: ATPase inhibitory activity. As to the method:
An Hsp90 ATPase assay was performed using a recombinant yeast Hsp90 protein (hereinafter called rHsp90). Yeast Hsp90 DNA was cloned from a yeast genomic DNA library according to a conventional method. The cloned yeast Hsp90 DNA was incorporated into a plasmid for expression in Escherichia coli, and the plasmid was expressed in Escherichia coli to obtain rHsp90.
The test compound was dissolved in DMSO to 10 mM. The dissolved solution was diluted with DMSO to two concentrations, 1 mM and 0.2 mM. Each diluted solution was further 10-fold diluted with an assay buffer (100 mM Tris, pH 7.4, 20 mM KCl, 6 mM MgCl2) (concentration of each test compound solution: 100 μM and 20 μM; DMSO concentration: 10%).
rHsp90 was dissolved in a TE buffer (20 mM Tris, pH 7.4, 1 mM EDTA) to a concentration of 2.531 mg/mL. The solution was diluted with an assay buffer to 125 μg/mL and dispensed to a 96-well assay plate at 40 μL per well (final concentration: 100 μg/mL).
The test compound solution was dispensed at 5 μL per well, and then the solutions in the respective wells were mixed using a plate mixer. 100 mM ATP (Sigma, Catalog No. A-7699) was diluted with an assay buffer to 1 mM and dispensed at 5 μL per well (final concentration: 100 μM). The solutions in the respective wells were mixed using a plate mixer, and then the assay plate was allowed to stand in an incubator set at 37° C. for two hours.
BIOMOL GREEN Reagent (BIOMOL, Catalog No. AK-111) was dispensed at 100 μL per well, and the reaction was terminated. The solutions in the respective wells were mixed using a plate mixer, and then 34% sodium citrate was dispensed at 10 μL per well. The solutions in the respective wells were mixed using a plate mixer, and then the assay plate was left to stand at room temperature for 30 minutes. The absorbance at 650 nm of each well was measured using SpectramaxPLUS (Molecular Devices).
The ratio of the absorbance of the test compound-added group to the absorbance of the test compound-free group (T/C value) was determined by the following calculation formula, based on the assumption that the absorbance of the well to which the test compound and rHsp90 were added was A, the absorbance of the well to which only rHsp90 was added was B, and the absorbance of the well to which neither the test compound nor rHsp90 was added was C. The calculation was carried out using Softmax Pro 4.6 (Molecular Devices). Furthermore, an inhibition rate (%) was calculated using the following calculation formula: T/C=(A−C)/(B−C)

Chain of CYP3A4 (P08684 whole entry): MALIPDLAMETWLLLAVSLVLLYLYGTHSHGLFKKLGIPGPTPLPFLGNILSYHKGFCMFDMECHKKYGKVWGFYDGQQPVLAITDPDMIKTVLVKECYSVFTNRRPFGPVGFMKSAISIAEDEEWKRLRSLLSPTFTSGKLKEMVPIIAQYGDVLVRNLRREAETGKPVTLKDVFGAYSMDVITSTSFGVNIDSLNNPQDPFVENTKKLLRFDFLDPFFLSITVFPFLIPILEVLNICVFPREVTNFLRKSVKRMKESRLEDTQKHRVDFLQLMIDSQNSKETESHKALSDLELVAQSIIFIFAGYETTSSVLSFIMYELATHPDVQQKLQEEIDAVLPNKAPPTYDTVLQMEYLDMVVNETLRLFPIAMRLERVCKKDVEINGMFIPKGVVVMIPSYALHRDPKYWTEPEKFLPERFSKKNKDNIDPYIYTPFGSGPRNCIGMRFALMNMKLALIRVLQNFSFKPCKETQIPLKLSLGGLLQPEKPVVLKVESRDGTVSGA
T1 sequence (P02829 whole entry): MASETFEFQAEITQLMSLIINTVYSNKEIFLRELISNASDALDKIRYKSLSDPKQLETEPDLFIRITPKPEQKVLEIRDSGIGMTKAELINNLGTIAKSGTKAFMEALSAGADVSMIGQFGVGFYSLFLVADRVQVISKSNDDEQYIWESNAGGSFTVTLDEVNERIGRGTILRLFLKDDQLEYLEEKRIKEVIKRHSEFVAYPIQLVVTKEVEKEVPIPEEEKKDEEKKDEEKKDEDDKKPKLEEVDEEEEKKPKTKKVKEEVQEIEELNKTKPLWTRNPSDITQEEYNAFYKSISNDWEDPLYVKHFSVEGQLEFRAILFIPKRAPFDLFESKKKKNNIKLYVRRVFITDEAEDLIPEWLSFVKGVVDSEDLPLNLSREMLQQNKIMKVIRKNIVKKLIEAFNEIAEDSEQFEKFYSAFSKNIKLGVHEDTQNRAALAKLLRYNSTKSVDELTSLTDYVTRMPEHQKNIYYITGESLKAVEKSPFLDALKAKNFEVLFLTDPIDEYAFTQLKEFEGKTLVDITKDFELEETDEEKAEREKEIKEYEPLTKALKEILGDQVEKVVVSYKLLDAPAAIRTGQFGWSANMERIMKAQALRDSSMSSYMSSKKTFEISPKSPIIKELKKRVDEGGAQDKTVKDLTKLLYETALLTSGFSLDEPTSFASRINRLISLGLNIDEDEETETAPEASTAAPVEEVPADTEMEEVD

For orientation: GI50 means the concentration at which growth is held to half of that of the control. High values mean lower sensitivity of the cells, low ones greater sensitivity of the cells. On to `CNC(=O)CC1=Cc2nn(Cc3ncc(C)c(OC)c3Cl)c3nc(N)nc(c23)SC1` [Compound 1, 2-{4-Amino-2-[(3-chloro-4-methoxy-5-methylpyridin-2-yl)methyl]-2,7-dihydro-6-thia-1,2,3,5-tetraazabenzo[cd]azulen-8-yl}-N-methylacetamide], for which the concentration for 50% growth inhibition (GI50) in data set [1] worked out at 26 nM; in data set [3] it was 13 nM. In addition, the inhibition at 10 min, 10 μM in data set [2] is 15%. Moreover, in data set [4], the inhibition at 2 µM is ≥ 50%.
`CNC(=O)CC1=Cc2nn(Cc3ncc(F)c(OC)c3C)c3nc(N)nc(c23)SC1` [Compound 2, 2-{4-Amino-2-[(5-fluoro-4-methoxy-3-methylpyridin-2-yl)methyl]-2,7-dihydro-6-thia-1,2,3,5-tetraazabenzo-[cd]azulen-8-yl}-N-methylacetamide]: the values for the concentration for 50% growth inhibition (GI50) in data set [1] and in data set [3] were 90 nM and 39 nM, respectively. Besides, the inhibition at 10 min, 10 μM in data set [2] came out at 58%. The inhibition at 2 µM in data set [4] is ≥ 50%.
Turning to `CNC(=O)CC1=Cc2nn(Cc3ncc(C)c(OC)c3Br)c3nc(N)nc(c23)SC1` [Compound 3, 2-{4-Amino-2-[(3-bromo-4-methoxy-5-methylpyridin-2-yl)methyl]-2,7-dihydro-6-thia-1,2,3,5-tetraazabenzo[cd]azulen-8-yl}-N-methylacetamide], the values for the GI50 in data set [1] and in data set [3] were 30 nM and 14 nM, respectively. Besides, the inhibition at 10 min, 10 μM in data set [2] came to 5%. Further, the inhibition at 2 µM in data set [4] was ≥ 50%.
For `COc1c(C)cnc(Cn2nc3c4c(nc(N)nc42)SCC(CC(N)=O)=C3)c1Br` [Compound 4, 2-{4-Amino-2-[(3-bromo-4-methoxy-5-methylpyridin-2-yl)methyl]-2,7-dihydro-6-thia-1,2,3,5-tetraazabenzo[cd]azulen-8-yl}acetamide mesilate] the same measures were 22 nM, 11 nM, 43% and ≥ 50%.
Take `COc1c(C)cnc(Cn2nc3c4c(nc(N)nc42)SCC(CC(=O)NCCF)=C3)c1Cl` [Compound 5, 2-{4-Amino-2-[(3-chloro-4-methoxy-5-methylpyridin-2-yl)methyl]-2,7-dihydro-6-thia-1,2,3,5-tetraazabenzo[cd]azulen-8-yl}-N-(2-fluoroethyl)acetamide]: the GI50 in data set [1] is 36 nM; in data set [3] it was 16 nM. Besides, in data set [2], the inhibition at 10 min, 10 μM turned out to be 66%. Besides, the inhibition at 2 µM in data set [4] was ≥ 50%.
The like results for `COc1ccnc(Cn2nc3c4c(nc(N)nc42)SCC(C(=O)NCC(F)F)=C3)c1Cl` [Compound 6, 4-Amino-2-[(3-chloro-4-methoxypyridin-2-yl)methyl]-N-(2,2-difluoroethyl)-2,7-dihydro-6-thia-1,2,3,5-tetraazabenzo[cd]azulen-8-carboxamide] were, in that order, 110 nM, 45 nM, -18% and ≥ 50%.
